From patent US9469617B2, “Molecules having certain pesticidal utilities, and intermediates, compositions, and processes related thereto” (priority 2014, dated 2016)
Read-outs that look alike come from different tables or passages of the source.

How the values were obtained:
Assay type in all cases: in vivo
[1] = test system: Cabbage Looper (CL) (Trichoplusia ni); test: Bioassay on Cabbage Looper (CL), 128-well diet tray assay; conditions: 168 h, 50 μg/cm^2 on artificial diet, second instar larvae, five to seven days, 25° C., read-out: CL % Control (or Mortality) rating
Method in brief: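 Second-instar larvae (one to five per well) placed on artificial diet treated with 50 μg/cm^2 compound in 90:10 acetone-water, dried, eight wells per compound. Held at 25 °C, 14:10 light-dark for five to seven days; percent mortality per well, averaged over the eight wells.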

[2] = test system: Beet Armyworm (BAW) (Spodoptera exigua); test: Bioassay on Beet Armyworm (BAW), 128-well diet tray assay; conditions: 168 h, 50 μg/cm^2 on artificial diet, second instar larvae, five to seven days, 25° C., read-out: BAW % Control (or Mortality) rating
Method in brief: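 Artificial diet was surface-treated with 50 μg/cm^2 compound in 90:10 acetone-water and dried, then infested with one to five second-instar larvae per well. Trays were held 5–7 days at 25° C, 14:10 light-dark. Percent mortality was averaged over eight wells.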

[3] = test system: Yellow Fever Mosquito (YFM) (Aedes aegypti); test: Bioassay on Yellow Fever Mosquito (YFM) larvae, 96-well plate; conditions: about 1 day-old larvae, master plate 4000 ppm in DMSO diluted, scored on mortality after 3 days
Method in brief: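 Compounds from 4000 ppm DMSO master solutions, diluted in 90:10 water:acetone, dispensed into wells and infested with about 1-day-old larvae in liver-powder water. Held covered at room temperature for 3 days, then each well scored for mortality; 6 replicate plates per master.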

[4] = test system: Green Peach Aphid (GPA) (Myzus persicae); test: Bioassay on Green Peach Aphid (GPA), foliar spray on cabbage seedlings; conditions: 72 h, 200 ppm foliar spray on cabbage seedlings, graded after three days, Abbott corrected % control, read-out: GPA % Control (or Mortality) rating
Experimental: Certain molecules disclosed in this document were tested against GPA using procedures described in the following example. In the reporting of the results, the “GPA & YFM Rating Table” was used (See Table Section).
Cabbage seedlings grown in 3-inch pots, with 2-3 small (3-5 cm) true leaves, were used as test substrate. The seedlings were infested with 20-50 GPA (wingless adult and nymph stages) one day prior to chemical application. Four pots with individual seedlings were used for each treatment. Test compounds (2 mg) were dissolved in 2 mL of acetone/MeOH (1:1) solvent, forming stock solutions of 1000 ppm test compound. The stock solutions were diluted 5× with 0.025% Tween 20 in water to obtain the solution at 200 ppm test compound. A hand-held aspirator-type sprayer was used for spraying a solution to both sides of […] leaves until runoff. Reference plants (solvent check) were sprayed with the diluent only containing 20% by volume of acetone/MeOH (1:1) solvent. Treated plants were held in a holding room for three days at approximately 25° C. and ambient relative humidity (RH) prior to grading. Evaluation was conducted by counting the number of live aphids per plant under a microscope. Percent Control was measured by using Abbott's correction formula (W. S. Abbott, “A Method of Computing the Effectiveness of an Insecticide” J. Econ. Entomol. 18 (1925), pp. 265-267) as follows. Corrected % Control=100*(X−Y)/X where X=No. of live aphids on solvent check plants and Y=No. of live aphids on treated plants. The results are indicated in the table entitled “Table ABC: Assay Results” and “Table ABCD: Assay Results” (See Table Section).

Structure (SMILES)	mortality at 50 µg/cm2 ([1]; Table ABCD) [%]	mortality at 50 µg/cm2 ([2]; Table ABCD) [%]	YFM % Control (or Mortality) rating ([3]; Table ABCD)	mortality at 200 ppm ([4]; Table ABCD) [%]	mortality at 50 µg/cm2 ([1]; Table ABC) [%]	mortality at 50 µg/cm2 ([2]; Table ABC) [%]	YFM % Control (or Mortality) rating ([3]; Table ABC)	mortality at 200 ppm ([4]; Table ABC) [%]
CC(C)(C)OC(=O)NC1Cc2ccc(-c3ncn(-c4ccc(OC(F)(F)F)cc4)n3)cc2C1 (stereo not shown) [C1, tert-butyl (5-(1-(4-(trifluoromethoxy)phenyl)-1H-1,2,4-triazol-3-yl)-2,3-dihydro-1H-inden-2-yl)carbamate]	50 to 100	50 to 100	A (80-100)	0 to 80				
CCCc1ccc(C)cc1N1C(=O)CS/C1=N\C(=O)NC1Cc2ccc(-c3ncn(-c4ccc(OC(F)(F)F)cc4)n3)cc2C1 (stereo not shown) [F13, (Z)-1-(3-(5-Methyl-2-propylphenyl)-4-oxothiazolidin-2-ylidene)-3-(5-(1-(4-(trifluoromethoxy)phenyl)-1H-1,2,4-triazol-3-yl)-2,3-dihydro-1H-inden-2-yl)urea]					50 to 100	50 to 100	A (80-100)	0 to 80
CC1S/C(=N\C(=O)NC2Cc3ccc(-c4ncn(-c5ccc(OC(F)(F)F)cc5)n4)cc3C2)N(c2ccccc2C(C)C)C1=O (stereo not shown) [FA2, (Z)-1-(3-(2-isopropylphenyl)-5-methyl-4-oxothiazolidin-2-ylidene)-3-(5-(1-(4-(trifluoromethoxy)phenyl)-1H-1,2,4-triazol-3-yl)-2,3-dihydro-1H-inden-2-yl)urea]					50 to 100	50 to 100	A (80-100)	0 to 80
Cc1ccc(C(C)C)c(N2C(=O)CS/C2=N\C(=O)NC2Cc3ccc(-c4ncn(-c5ccc(OC(F)(F)F)cc5)n4)cc3C2)c1 (stereo not shown) [F2, (Z)-1-(3-(2-isopropyl-5-methylphenyl)-4-oxothiazolidin-2-ylidene)-3-(5-(1-(4-(trifluoromethoxy)phenyl)-1H-1,2,4-triazol-3-yl)-2,3-dihydro-1H-inden-2-yl)urea]					50 to 100	50 to 100	A (80-100)	0 to 80
